Reference: patent US11241394B2, “Treating vasculature related diseases or disorders using nanoparticles” (The Regents of the University of California, priority 2015, dated 2022)

Test system: balloon-denuded rats (coronary restenosis model)
Assay: Treatment of experimental rat model of coronary restenosis
Type: in vivo, Sprague-Dawley rats
Settings: 0.3 mg kg^-1 docetaxel i.v. on day 0 and 5, arteries collected day 14, n=6
Description: Sprague-Dawley rats following angioplasty-induced arterial denudation were injected intravenously with 1 mL of 5 mg mL^−1 docetaxel-loaded PNPs in 10% sucrose at a docetaxel dose of 0.3 mg kg^−1 on day 0 and day 5. As controls, animals receiving PBS, free docetaxel, and empty PNPs were prepared. On day 14, animals were euthanized with an overdose of ketamine-xylazine cocktail and perfused with PBS and 4% paraformaldehyde (PFA) at a pressure of 120-140 mm Hg. Segments of left and right carotid arteries were carefully dissected out, and the PFA-fixed carotid arteries were embedded with Tissue-Tek OCT compound (VWR International) in a tissue base mold and slowly submerged into pre-chilled 2-methyl butane until frozen completely. The frozen tissue block was then immediately stored at −80° C. until sectioning. Serial sectioning (15 μm per section) was performed with a Cyrotome cryostat machine (Leica), and the tissue sections were placed on polylysine-treated glass slides. Tissue sections on slides were dried at room temperature for 30 min before staining. For immunohistochemistry, frozen sections on slides were first washed with PBS to remove residual OCT medium and then subjected to standard hematoxylin and eosin (H&E) staining. Areas of intima and media were analyzed using Image J. Luminal obliteration is defined as the intima area/the area within the internal elastic lamina. […]

CC(=O)O[C@@]12CO[C@@H]1C[C@H](O)[C@@]1(C)C(=O)[C@H](O)C3=C(C)[C@@H](OC(=O)[C@H](O)[C@@H](NC(=O)OC(C)(C)C)c4ccccc4)C[C@@](O)([C@@H](OC(=O)c4ccccc4)[C@H]21)C3(C)C [free docetaxel, docetaxel]
intima-to-media ratio (I/M): 0.76±0.18
luminal obliteration: 33.6%
